The values that follow come from patent US11166959B2, “Isofuranone compounds useful as HPK1 inhibitors” (BRISTOL-MYERS SQUIBB COMPANY, priority 2017, dated 2021).

For assay [1], the target named is T1, HPK1 (Homo sapiens, UniProt Q92918).
T1 construct: purchased SignalChem M23-11G
T1 sequence (Q92918 1-346 limits assumed): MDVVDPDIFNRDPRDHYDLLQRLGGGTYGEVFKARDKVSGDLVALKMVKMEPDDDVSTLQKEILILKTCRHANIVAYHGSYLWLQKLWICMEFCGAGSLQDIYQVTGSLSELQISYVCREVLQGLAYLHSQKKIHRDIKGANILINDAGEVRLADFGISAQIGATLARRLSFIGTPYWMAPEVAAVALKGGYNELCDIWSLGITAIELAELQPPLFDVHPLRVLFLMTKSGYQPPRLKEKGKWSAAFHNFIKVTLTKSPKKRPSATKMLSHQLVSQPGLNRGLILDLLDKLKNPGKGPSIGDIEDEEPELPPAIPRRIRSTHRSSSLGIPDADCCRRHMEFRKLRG
As to the kind of experiment: HPK1 Inhibition Assay (kinase reaction, Caliper capillary electrophoresis). Type of assay: biochemical. The conditions noted are these: for IRAK4/HPK1 Ratio: ratio of the IRAK4 IC50 value to the HPK1 IC50 value. The protocol:
The reactions were incubated out for three hours and quenched with 1 mM EDTA solution. The reaction incubation time and enzyme concentration were optimized to obtain a maximum peptide substrate conversion of 20-30%. The reaction mixtures were analyzed by capillary electrophoresis on a Caliper LabChip EZ Reader to resolve phosphorylated and unphosphorylated peptide species and determine peptide substrate conversion. […] The compounds were dissolved in DMSO and evaluated at 11 concentrations to determine the IC50 values.

For assay [2], the target named is T2, IRAK4 (Homo sapiens, UniProt Q9NWZ3).
T2 construct: 1 nM IRAK4 (160-460); purchased SignalChem M24016
T2 sequence (Q9NWZ3 160-460): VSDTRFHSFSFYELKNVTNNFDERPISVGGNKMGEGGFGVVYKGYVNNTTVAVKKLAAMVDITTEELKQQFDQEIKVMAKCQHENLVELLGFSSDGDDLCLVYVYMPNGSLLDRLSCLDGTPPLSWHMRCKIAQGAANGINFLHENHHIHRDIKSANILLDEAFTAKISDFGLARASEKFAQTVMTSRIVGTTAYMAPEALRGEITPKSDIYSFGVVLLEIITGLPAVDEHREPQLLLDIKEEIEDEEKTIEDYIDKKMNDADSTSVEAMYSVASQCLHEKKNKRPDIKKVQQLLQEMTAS
As to the kind of experiment: IRAK4 Inhibition Assay (kinase reaction, Caliper capillary electrophoresis). Type of assay: biochemical. The conditions noted are these: 500 μM ATP, 11 concentrations. The protocol:
The reactions were incubated out for three hours and quenched with 1 mM EDTA solution. The reaction incubation time and enzyme concentration were optimized to obtain a maximum peptide substrate conversion of 20-30%. The reaction mixtures were analyzed by capillary electrophoresis on a Caliper LabChip EZ Reader to resolve phosphorylated and unphosphorylated peptide species and determine peptide substrate conversion. […] The compounds were dissolved in DMSO and evaluated at 11 concentrations to determine IC50 values.

[3] abbreviates: 0.625 nM HPK1, 22 μM ATP, 11 concentrations, read-out: HPK1 IC50.

Each structure is given as a SMILES string. pIC50: −log10 of the molar value. Where two headings read alike, the source gives them in different places.

What is called pIC50 is −log10 of the IC50, conventionally taken in molar units. Turning to `CN(C)C12CC(c3noc(-c4cnc(Nc5ccc6c(c5)C(C)(C)OC6=O)nc4N[C@H](CO)c4ccccc4)n3)(C1)C2` [Example 48, 5-[(5-{3-[3-(dimethylamino)bicyclo[1.1.1]pentan-1-yl]-1,2,4-oxadiazol-5-yl}-4-{[(1S)-2-hydroxy-1-phenylethyl]amino}pyrimidin-2-yl)amino]-3,3-dimethyl-1,3-dihydro-2-benzofuran-1-one], the negative logarithm of the IC50 (pIC50) in assay [1] (setting [3]) is above 7.30; in assay [2], 6.00 to 6.60. Further, the “IRAK4/HPK1 Ratio” value in assay [1] is on record as “C (C=>50)”.
The corresponding values for `CN(C)CCCNC(=O)c1cnc(Nc2ccc3c(c2)C(C)(C)OC3=O)nc1N[C@H](CO)c1ccccc1` [Example 5, 2-[(3,3-dimethyl-1-oxo-1,3-dihydro-2-benzofuran-5-yl)amino]-N-[3-(dimethylamino)propyl]-4-{[(1S)-2-hydroxy-1-phenylethyl]amino}pyrimidine-5-carboxamide] are above 7.30, 6.00 to 6.60 and “B (B=10 to 50)”.
For `CC1(C)OC(=O)c2ccc(Nc3ncc(C(=O)NNC(=O)c4cnccn4)c(N[C@H](CO)c4ccccc4)n3)cc21` [Example 58, N′-{2-[(3,3-dimethyl-1-oxo-1,3-dihydro-2-benzofuran-5-yl)amino]-4-{[(1S)-2-hydroxy-1-phenylethyl]amino}pyrimidine-5-carbonyl} pyrazine-2-carbohydrazide], the negative-log IC50 (pIC50) in assay [1] (setting [3]) was above 7.30; in assay [2], 6.00 to 6.60. In assay [1], the “IRAK4/HPK1 Ratio” value is on record as “B (B=10 to 50)”.
Take `CC1(C)OC(=O)c2ccc(Nc3ncc(-c4nc(C5(CO)CC5)no4)c(N[C@H](CO)c4ccccc4)n3)cc21` [Example 38, 5-[(4-{[(1S)-2-hydroxy-1-phenylethyl]amino}-5-{3-[1-(hydroxymethyl)cyclopropyl]-1,2,4-oxadiazol-5-yl}pyrimidin-2-yl)amino]-3,3-dimethyl-1,3-dihydro-2-benzofuran-1-one]: the pIC50 in assay [1] (setting [3]) was above 7.30; in assay [2], 6.60 to 7.30. For the same compound, the “IRAK4/HPK1 Ratio” value in assay [1] is on record as “C (C=>50)”.
`CC(C)(C)NC(=O)c1cnc(Nc2ccc3c(c2)C(C)(C)OC3=O)nc1N[C@H](CO)c1ccccc1` [Example 11, N-tert-butyl-2-[(3,3-dimethyl-1-oxo-1,3-dihydro-2-benzofuran-5-yl)amino]-4-{[(1S)-2-hydroxy-1-phenylethyl]amino}pyrimidine-5-carboxamide]: the negative logarithm of the IC50 (pIC50) in assay [1] (setting [3]) is above 7.30; in assay [2] it was 6.00 to 6.60. Further, in assay [1], the “IRAK4/HPK1 Ratio” value is on record as “B (B=10 to 50)”.
The corresponding values for `CC(C)CNC(=O)c1cnc(Nc2ccc3c(c2)C(C)(C)OC3=O)nc1N[C@H](CO)c1ccccc1` [Example 12, 2-[(3,3-dimethyl-1-oxo-1,3-dihydro-2-benzofuran-5-yl)amino]-4-{[(1S)-2-hydroxy-1-phenylethyl]amino}-N-(2-methylpropyl)pyrimidine-5-carboxamide] are above 7.30, 6.00 to 6.60 and “B (B=10 to 50)”.
Take `CC1(C)OC(=O)c2ccc(Nc3ncc(-c4nc(-c5cccc(F)c5)no4)c(N[C@H](CO)c4ccccc4)n3)cc21` [Example 45, 5-({5-[3-(3-fluorophenyl)-1,2,4-oxadiazol-5-yl]-4-{[(1S)-2-hydroxy-1-phenylethyl]amino}pyrimidin-2-yl}amino)-3,3-dimethyl-1,3-dihydro-2-benzofuran-1-one]: the negative logarithm of the IC50 (pIC50) was 6.60 to 7.30 in assay [1] (setting [3]) and 6.00 to 6.60 in assay [2]. The “IRAK4/HPK1 Ratio” value in assay [1] was “B (B=10 to 50)”.
The corresponding values for `CC1(C)OC(=O)c2ccc(Nc3ncc(C(=O)NN)c(N[C@H](CO)c4ccccc4)n3)cc21` [Example 51, 2-[(3,3-dimethyl-1-oxo-1,3-dihydro-2-benzofuran-5-yl)amino]-4-{[(1S)-2-hydroxy-1-phenylethyl]amino}pyrimidine-5-carbohydrazide] are above 7.30, 6.00 to 6.60 and “C (C=>50)”.
The corresponding values for `CC(=O)NC12CC(c3noc(-c4cnc(Nc5ccc6c(c5)C(C)(C)OC6=O)nc4N[C@H](CO)c4ccccc4)n3)(C1)C2` [Example 49, N-[3-(5-{2-[(3,3-dimethyl-1-oxo-1,3-dihydro-2-benzofuran-5-yl)amino]-4-{[(1S)-2-hydroxy-1-phenylethyl]amino}pyrimidin-5-yl}-1,2,4-oxadiazol-3-yl)bicyclo[1.1.1]penta-1-yl]acetamide] are above 7.30, 6.00 to 6.60 and “C (C=>50)”.
The corresponding values for `CC1(C)OC(=O)c2ccc(Nc3ncc(-c4nnc(-c5cccnn5)o4)c(N[C@H](CO)c4ccccc4)n3)cc21` [Example 67, 5-[(4-{[(1S)-2-hydroxy-1-phenylethyl]amino}-5-[5-(pyridazin-3-yl)-1,3,4-oxadiazol-2-yl]pyrimidin-2-yl)amino]-3,3-dimethyl-1,3-dihydro-2-benzofuran-1-one] are above 7.30, 6.60 to 7.30 and “B (B=10 to 50)”.
For `CC1(C)OC(=O)c2ccc(Nc3ncc(-c4nc(C5CC(F)(F)C5)no4)c(N[C@H](CO)c4ccccc4)n3)cc21` [Example 40, 5-({5-[3-(3,3-difluorocyclobutyl)-1,2,4-oxadiazol-5-yl]-4-{[(1S)-2-hydroxy-1-phenylethyl]amino}pyrimidin-2-yl}amino)-3,3-dimethyl-1,3-dihydro-2-benzofuran-1-one], the pIC50 was above 7.30 in assay [1] (setting [3]) and 6.00 to 6.60 in assay [2]. Moreover, the “IRAK4/HPK1 Ratio” value in assay [1] is listed as “C (C=>50)”.
With `CC1(C)OC(=O)c2ccc(Nc3ncc(C(=O)NC[C@@]4(O)CN5CCC4CC5)c(N[C@H](CO)c4ccccc4)n3)cc21` [Example 24, 2-[(3,3-dimethyl-1-oxo-1,3-dihydro-2-benzofuran-5-yl)amino]-N-{[(3R)-3-hydroxy-1-azabicyclo[2.2.2]octan-3-yl]methyl}-4-{[(1S)-2-hydroxy-1-phenylethyl]amino}pyrimidine-5-carboxamide], the pIC50 was above 7.30 in assay [1] and 6.00 to 6.60 in assay [2]. Besides, the “IRAK4/HPK1 Ratio” value in assay [1] is “B (B=10 to 50)”.
As for `CC1(C)OC(=O)c2ccc(Nc3cc(NCc4cccnc4)c(-c4nc(C56CCN(CC5)CC6)no4)cn3)nc21` [Example 85, 2-{[5-(3-{1-azabicyclo[2.2.2]octan-4-yl}-1,2,4-oxadiazol-5-yl)-4-{[(pyridin-3-yl)methyl]amino}pyridin-2-yl]amino}-7,7-dimethyl-5H,7H-furo[3,4-b]pyridin-5-one], the pIC50 in assay [1] (setting [3]) is above 7.30; in assay [2] it was 6.00 to 6.60. In addition, the “IRAK4/HPK1 Ratio” value in assay [1] was “C (C=>50)”.
The corresponding values for `CC(NC(=O)c1cnc(Nc2ccc3c(c2)C(C)(C)OC3=O)nc1N[C@H](CO)c1ccccc1)c1ccccc1` (stereo partly drawn) [Example 15, 2-[(3,3-dimethyl-1-oxo-1,3-dihydro-2-benzofuran-5-yl)amino]-4-{[(1S)-2-hydroxy-1-phenylethyl]amino}-N-(1-phenylethyl)pyrimidine-5-carboxamide] are 6.60 to 7.30, 6.00 to 6.60 and “B (B=10 to 50)”.
The corresponding values for `CC1(C)OC(=O)c2ccc(Nc3ncc(-c4nnc(C5CCS(=O)(=O)CC5)o4)c(N[C@H](CO)c4ccccc4)n3)cc21` [Example 69, (S)-5-((5-(5-(1,1-dioxidotetrahydro-2H-thiopyran-4-yl)-1,3,4-oxadiazol-2-yl)-4-((2-hydroxy-1-phenylethyl)amino)pyrimidin-2-yl)amino)-3,3-dimethylisobenzofuran-1(3H)-one] are above 7.30, 6.60 to 7.30 and “B (B=10 to 50)”.
